According to patent publication US20220268760A1, “ATRIAL CARDIAC MICROTISSUES FOR CHAMBER-SPECIFIC ARRHYTHMOGENIC TOXICITY RESPONSES” (Brown University, priority 2021, published 2022):

How the values were obtained:
[1] = tested on: 3D atrial microtissues (spontaneous activity, If channel); assay: Spontaneous action potential activity of atrial microtissues without electrical stimulation; format: cell-based, human
Protocol: 3D microtissue generation. Sterile 2% (wt/vol) agarose in PBS were pipetted into 35-microwell molds with hemispherical bottoms (FIG. 1C; 3D Petri Dish®, MicroTissues Inc., see MilliporeSigma, St. Louis, Mo., USA). After casted, hydrogels equilibrated in RPMI/B27 media with 1% Pen/Strep overnight in an incubator. Lactate-purified hiPSC-cardiomyocytes were then harvested, singularized, and suspended in RPMI/B27 media with 10% FBS and 1% Pen/Strep, collecting a subset of the cells for flow cytometry analysis of cTnT and MLC2v expression. […] Cells were allowed to settle into the cylindrical recesses for 30 minutes before adding media supplemented with 5 μM ROCK Inhibitor. Culture medium was changed one day post-seeding and replaced every other day. Self-assembling, spheroidal, and scaffold-free 3D microtissues were electrically field stimulated for six-eight days with a 1 Hz, 10.0 V, and 4.0 milliseconds duration bipolar pulse train (C-Pace EP, IonOptix, Westwood, Mass., USA) to precondition the microtissues before optical mapping. […] et al., Proc. Natl. Acad. Sci., U.S.A., 101, 18129-18134 (2004). The 3D microtissues beat synchronously with 1 Hz stimulation within two days, and tissue compaction were observed within three days post-seeding. Optical mapping of cardiac action potential. The inventors transferred hydrogels containing microtissues to a Petri dish on a temperature-controlled chamber (Dual Automatic Temperature Controller TC-344B, Warner Instrument, Hamden, Conn., USA) to maintain ambient temperatures of 35±1° C. throughout imaging. Microtissues were gently perfused in a solution containing (in mM) 140 NaCl, 5.1 KCl, 1 MgCl2, 1 CaCL2, 0.33 NaH2PO4, 5 HEPES, and 7.5 glucose warmed with an inline heater. Microtissues were allowed to equilibrate in the perfusion solution for thirty minutes and subsequently labeled with a voltage-sensitive dye (5 μM di-4-ANEPPS) for five minutes to enable membrane potential (Vm) recordings of action potential. Excess residual dyes were washed out thoroughly before data collection. An active-pixel sensor (CMOS sensor) camera acquired fluorescence images at 1000 frames-per-second, and action potential traces were reconstructed from fluorescence intensity data. Semi-automated analyses of action potential parameters were conducted using an in-house analysis software and included rise time, […] to maximum repolarization rate ([…]), and APD triangulation ([…]). Screening of arrhythmogenic compounds. […] Three molds of microtissues (two atrial cardiomyocytes and one ventricular cardiomyocytes) were used to test the compound 4-aminopyridine under 1 Hz electrical stimulation with a platinum field electrode (Myopacer EP field stimulator, IonOptix, Westwood, Mass., USA). […]

[2] = tested on: hiPSC-derived cardiomyocytes (MLC2v); assay: Flow cytometry of MLC2v expression in hiPSC-cardiomyocytes; format: cell-based, human; conditions: supplementation at days 3-6 of differentiation; without it 31±0.2, p<0.05; in % (unit assumed)
Protocol: Cardiomyocyte differentiation. The inventors differentiated atrial and ventricular cardiomyocytes ([…] ) from GCaMP6f-expressing human induced pluripotent stem cells (hiPSCs; WTC human iPSCs, Gladstone Institutes, San Francisco, Calif., USA) using small molecule modulations of Wnt signaling, as described previously by Burridge et al., Nature Methods, 11, 855-860 (2014), with slight modifications. hiPSCs were cultured on vitronectin coated plates in Essential 8 Medium (E8 media; Thermo Fisher Scientific, Waltham, Calif., USA). Before starting differentiation, hiPSCs were singularized, seeded onto Matrigel-coated plates in E8 media with 5 μM ROCK Inhibitor (RI; Thermo Fisher Scientific, Waltham, Calif., USA) and cultured to 80% confluency, at which point the cells were treated with 4.5 μM CHIR 99021 (Tocris Bioscience, Minneapolis, Minn., USA), a glycogen synthase kinase 3 (GSK3) inhibitor, for 24±1 hours in chemically defined medium CDM3 basal medium (RPMI 1640 Thermo Fisher Scientific, Waltham, Mass., USA) supplemented with L-ascorbic acid and human serum albumin). […] Samples were run on a BD FACSAriaTM Illu Flow Cytometer (BD Biosciences, San Jose, Calif.), and data were analyzed with FlowJo (BD Biosciences, San Jose, Calif.).

[3] = tested on: 3D atrial microtissues (hiPSC-atrial cardiomyocytes with 5% human cardiac fibroblasts); assay: Optical mapping of action potentials of 3D atrial microtissues under 1 Hz pacing; format: cell-based; conditions: for APD30 / APD50 / APD80 / APDMxR / APDTri/APDMxR / Rise Time: mean ± SD
Protocol: (§1) 3D microtissue generation. Sterile 2% (wt/vol) agarose in PBS were pipetted into 35-microwell molds with hemispherical bottoms (FIG. 1C; 3D Petri Dish®, MicroTissues Inc., see MilliporeSigma, St. Louis, Mo., USA). After casted, hydrogels equilibrated in RPMI/B27 media with 1% Pen/Strep overnight in an incubator. Lactate-purified hiPSC-cardiomyocytes were then harvested, singularized, and suspended in RPMI/B27 media with 10% FBS and 1% Pen/Strep, collecting a subset of the cells for flow cytometry analysis of cTnT and MLC2v expression. […] Cells were allowed to settle into the cylindrical recesses for 30 minutes before adding media supplemented with 5 μM ROCK Inhibitor. Culture medium was changed one day post-seeding and replaced every other day. Self-assembling, spheroidal, and scaffold-free 3D microtissues were electrically field stimulated for six-eight days with a 1 Hz, 10.0 V, and 4.0 milliseconds duration bipolar pulse train (C-Pace EP, IonOptix, Westwood, Mass., USA) to precondition the microtissues before optical mapping. […] et al., Proc. Natl. Acad. Sci., U.S.A., 101, 18129-18134 (2004). The 3D microtissues beat synchronously with 1 Hz stimulation within two days, and tissue compaction were observed within three days post-seeding. Optical mapping of cardiac action potential. The inventors transferred hydrogels containing microtissues to a Petri dish on a temperature-controlled chamber (Dual Automatic Temperature Controller TC-344B, Warner Instrument, Hamden, Conn., USA) to maintain ambient temperatures of 35±1° C. throughout imaging. Microtissues were gently perfused in a solution containing (in mM) 140 NaCl, 5.1 KCl, 1 MgCl2, 1 CaCL2, 0.33 NaH2PO4, 5 HEPES, and 7.5 glucose warmed with an inline heater. Microtissues were allowed to equilibrate in the perfusion solution for thirty minutes and subsequently labeled with a voltage-sensitive dye (5 μM di-4-ANEPPS) for five minutes to enable membrane potential (Vm) recordings of action potential. Excess residual dyes were washed out thoroughly before data collection. An active-pixel sensor (CMOS sensor) camera acquired fluorescence images at 1000 frames-per-second, and action potential traces were reconstructed from fluorescence intensity data. Semi-automated analyses of action potential parameters were conducted using an in-house analysis software and included rise time, […] to maximum repolarization rate ([…]), and APD triangulation ([…]). Screening of arrhythmogenic compounds. […] Three molds of microtissues (two atrial cardiomyocytes and one ventricular cardiomyocytes) were used to test the compound 4-aminopyridine under 1 Hz electrical stimulation with a platinum field electrode (Myopacer EP field stimulator, IonOptix, Westwood, Mass., USA). […] At each dose, the microtissues were allowed to respond to the drug for five-ten minutes before action potential recordings were acquired. At least ten seconds of data were acquired per microtissue at each dose. Instead, three molds of atrial microtissues were used to test the compound ivabradine without electrical stimulation to investigate how action potential properties and spontaneous activity were altered in response to the drug.

[4] = tested on: 3D ventricular microtissues (hiPSC-ventricular cardiomyocytes with 5% human cardiac fibroblasts); assay: Optical mapping of action potentials of 3D ventricular microtissues under 1 Hz pacing; format: cell-based; conditions: for APD30 / APD50 / APD80 / APDTri/APDMxR / Rise Time / APDMxR: mean ± SD
Protocol: as §1

COc1cc2c(cc1OC)CC(=O)N(CCCN(C)C[C@H]1Cc3cc(OC)c(OC)cc31)CC2 [Ivabradine]
Effect on spontaneous activity (share of microtissues, in words) ([1]; atrial microtissues, 1 μM, no electrical stimulation): eliminate spontaneous activity in more than half of the atrial microtissues | Effect on spontaneous action potential events (in words) ([1]; atrial microtissues, all tested dosages): significantly reduced spontaneous action potential events | Effect on spontaneous activity (in words) ([1]; atrial microtissues, higher dosages): loss of spontaneous activity | Voltage trace events (in words) ([1]; small subset of spontaneous atrial microtissues, 5 μM, recovered with 1 Hz pacing): events resembling failed depolarization

CC1=C(/C=C/C(C)=C/C=C/C(C)=C/C(=O)O)C(C)(C)CCC1 [Retinoic acid]
MLC2v+ expression of cardiomyocytes [2]: 18±5

Nc1ccncc1 [4-Aminopyridine]
APD30 ([3]; 1 μM): 75.2 ± 11.4 ms | APD50 ([3]; 1 μM): 95.7 ± 12.9 ms | APD80 ([3]; 1 μM): 121.4 ± 16.2 ms | APDMxR ([3]; 1 μM): 126.6 ± 15.8 ms | APDTri/APDMxR ([3]; 1 μM): 0.24 ± 0.03 | Rise Time ([3]; 1 μM, n=3 batches): 11.9 ± 2.6 ms | APD30 ([3]; 3 μM): 75.2 ± 11.4 ms | APD50 ([3]; 3 μM): 97.5 ± 11.4 ms | APD80 ([3]; 3 μM): 123.5 ± 14.7 ms | APDMxR ([3]; 3 μM): 128.3 ± 12.9 ms | APDTri/APDMxR ([3]; 3 μM): 0.24 ± 0.03 | Rise Time ([3]; 3 μM): 11.8 ± 2.2 ms | Change of rise time and APDTri (in words) ([3]; 100 μM): significant increase | APD30 ([3]; 100 μM): 84.0 ± 10.6 ms | APD50 ([3]; 100 μM): 104.8 ± 12.0 ms | APD80 ([3]; 100 μM): 129.9 ± 15.9 ms | APDMxR ([3]; 100 μM): 136.6 ± 14.6 ms | APDTri/APDMxR ([3]; 100 μM): 0.23 ± 0.03 | Rise Time ([3]; 100 μM): 14.0 ± 3.7 ms | Change of APD30, APD50, APD80 and APDMxR (in words) ([3]; increasing doses (1, 3, 100 μM)): significantly prolonged | APD30 ([4]; 1 μM): 244.6 ± 38.4 ms | APD50 ([4]; 1 μM): 287.8 ± 49.9 ms | APD80 ([4]; 1 μM): 329.6 ± 50.6 ms | APDTri/APDMxR ([4]; 1 μM): 0.09 ± 0.01′ | Rise Time ([4]; 1 μM): 6.9 ± 1.9 ms | APD30 ([4]; 3 μM): 233.3 ± 35.8 ms | APD50 ([4]; 3 μM): 275.7 ± 47.7 ms | APD80 ([4]; 3 μM): 321.6 ± 54.1 ms | APDMxR ([4]; 3 μM): 307.5 ± 55.2 ms | APDTri/APDMxR ([4]; 3 μM): 0.10 ± 0.02 | Rise Time ([4]; 3 μM): 7.1 ± 2.4 ms | APD30 ([4]; 100 μM): 236.7 ± 32.5 ms | APD50 ([4]; 100 μM): 280.0 ± 44.0 ms | APD80 ([4]; 100 μM): 325.6 ± 48.5 ms | APDMxR ([4]; 100 μM): 312.5 ± 51.7 ms | APDTri/APDMxR ([4]; 100 μM): 0.10 ± 0.02 | Rise Time ([4]; 100 μM): 7.5 ± 2.6 ms | Change of APD30, APD50, APD80 and APDMxR (in words) ([4]; all dosages): No significant changes
